Measured values reported in US20250179059A1 (The Regents of the University of California, priority 2021, published 2025).

Tests used:
[1] = tested on: human SKM-1 acute myeloid leukemia cells; test: SKM-1 antiproliferation cell-based assay (ATPlite)
In short: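 Log-phase cells in RPMI 1640/15% FBS were seeded at 34722 cells/mL and exposed for 4 days to nine-concentration DMSO serial dilutions in triplicate. Viability was read as ATP luminescence (ATPlite 1step), and IC50 values came from variable-slope non-linear regression.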

[2] = target: T1, human BRD4 bromodomain II (Homo sapiens, UniProt O60885); test: Bromodomain binding assay (AlphaScreen), BRD4 BDII; conditions: BRD4 BDII AlphaScreen assay; read-out: BRD4 BD2 IC50
T1 construct: human BRD4 bromodomain II [based on Genbank NM_058243, residues 349-460]; host or cells: E. coli
In short: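 AlphaScreen competition: His6-BRD4 BDI (aa 44-170) or BDII (aa 349-460) vs biotin-H4(1-21) K5/K8/K12/K16Ac peptide; Ni-chelate acceptor/streptavidin donor beads. HEPES pH 7.5, NaCl, CHAPS, BSA, 1% DMSO; RT. 10-pt 3-fold titration, % peptide binding fitted → IC50.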

[3] = Homo sapiens, SKM-1, SKM-1 antiproliferation assay

GI50 [1, 3] [nM] | IC50 [2] [nM] | GI50 ([1]; SKM-1 antiproliferation assay) [nM] | SMILES
30 to 300 | 10 to 100 | – | Cc1cc(-c2cc(F)cc(-c3cccc(N4CCN(C(C)(C)C)CC4)c3)c2O)cc(Cl)c1-n1ccn(C)c1=O [Example 927, 1-(3″-(4-(tert-butyl)piperazin-1-yl)-3-chloro-5′-fluoro-2′-hydroxy-5-methyl-[1,1′:3′,1″-terphenyl]-4-yl)-3-methyl-1H-imidazol-2(3H)-one]
30 to 300 | 1 to 10 | – | CC(C)(C)N1CCN(c2cccc(-c3cc(F)cc(-c4ccc(-n5cc[nH]c5=O)c(Cl)c4)c3O)c2)CC1 [Example 928, 1-(3″-(4-(tert-butyl)piperazin-1-yl)-3-chloro-5′-fluoro-2′-hydroxy-[1,1′:3′,1″-terphenyl]-4-yl)-1H-imidazol-2(3H)-one]
300 to 3000 | > 100 | – | CCc1cc(-c2cc(F)cc(-c3cccc(N4CCN(C(C)(C)C)CC4)c3)c2O)cc(Cl)c1-n1ccn(C)c1=O [Example 929, 1-(3″-(4-(tert-butyl)piperazin-1-yl)-3-chloro-5-ethyl-5′-fluoro-2′-hydroxy-[1,1′:3′,1″-terphenyl]-4-yl)-3-methyl-1H-imidazol-2(3H)-one]
300 to 3000 | > 100 | – | Cn1ccn(-c2c(Cl)cc(-c3cc(F)cc(-c4cccc(N5CCN(C(C)(C)C)CC5)c4)c3O)cc2OC2CC2)c1=O [Example 930, 1-(3″-(4-(tert-butyl)piperazin-1-yl)-3-chloro-5-cyclopropoxy-5′-fluoro-2′-hydroxy-[1,1′:3′,1″-terphenyl]-4-yl)-3-methyl-1H-imidazol-2(3H)-one]
300 to 3000 | > 100 | – | Cn1ccn(-c2c(OC3CC3)ccc(-c3cc(F)cc(-c4cccc(N5CCN(C(C)(C)C)CC5)c4)c3O)c2Cl)c1=O [Example 931, 1-(3″-(4-(tert-butyl)piperazin-1-yl)-2-chloro-4-cyclopropoxy-5′-fluoro-2′-hydroxy-[1,1′:3′,1″-terphenyl]-3-yl)-3-methyl-1,3-dihydro-2H-imidazol-2-one]
300 to 3000 | > 100 | – | CC(C)c1cc(-c2cc(F)cc(-c3cccc(N4CCN(C(C)(C)C)CC4)c3)c2O)cc(Cl)c1-n1ccn(C)c1=O [Example 932, 1-(3″-(4-(tert-butyl)piperazin-1-yl)-3-chloro-5′-fluoro-2′-hydroxy-5-isopropyl-[1,1′:3′,1″-terphenyl]-4-yl)-3-methyl-1H-imidazol-2(3H)-one]
30 to 300 | 10 to 100 | – | Cn1ccn(-c2c(Cl)cc(-c3cc(F)cc(-c4cccc(N5CCN(C(C)(C)C)CC5)c4)c3O)cc2C2CC2)c1=O [Example 933, 1-(3″-(4-(tert-butyl)piperazin-1-yl)-3-chloro-5-cyclopropyl-5′-fluoro-2′-hydroxy-[1,1′:3′,1″-terphenyl]-4-yl)-3-methyl-1H-imidazol-2(3H)-one]
– | > 100 | 300 to 3000 | CC(C)c1cc(-c2cc(F)cc(-c3cccc(N4CCN(C(C)(C)C)CC4)c3)c2O)cc(Cl)c1-n1ccn(C)c1=O [Example 934, (R)-1-(3″-(4-(tert-butyl)piperazin-1-yl)-3-chloro-5′-fluoro-2′-hydroxy-5-isopropyl-[1,1′:3′,1″-terphenyl]-4-yl)-3-methyl-1,3-dihydro-2H-imidazol-2-one]
– | > 100 | 300 to 3000 | CC(C)c1cc(-c2cc(F)cc(-c3cccc(N4CCN(C(C)(C)C)CC4)c3)c2O)cc(Cl)c1-n1ccn(C)c1=O [Example 935, (S)-1-(3″-(4-(tert-butyl)piperazin-1-yl)-3-chloro-5′-fluoro-2′-hydroxy-5-isopropyl-[1,1′:3′,1″-terphenyl]-4-yl)-3-methyl-1,3-dihydro-2H-imidazol-2-one]
300 to 3000 | > 100 | – | Cc1nc(-c2cc(F)cc(-c3cccc(N4CCN(C(C)(C)C)CC4)c3)c2O)ccc1-n1ccn(C)c1=O [Example 936, 1-(6-(3′-(4-(tert-butyl)piperazin-1-yl)-5-fluoro-2-hydroxy-[1,1′-biphenyl]-3-yl)-2-methylpyridin-3-yl)-3-methyl-1H-imidazol-2(3H)-one]
30 to 300 | 10 to 100 | – | CC(C)Oc1cc(-c2cc(F)cc(-c3cccc(N4CCN(C(C)(C)C)CC4)c3)c2O)cc(Cl)c1-n1ccn(C)c1=O [Example 937, 1-(3″-(4-(tert-butyl)piperazin-1-yl)-3-chloro-5′-fluoro-2′-hydroxy-5-isopropoxy-[1,1′:3′,1″-terphenyl]-4-yl)-3-methyl-1,3-dihydro-2H-imidazol-2-one]
0.3 to 30 | 1 to 10 | – | [2H]C([2H])([2H])n1ccn(-c2ccc(-c3cc(F)cc(-c4cnc(OC)c(N5CCN(C(C)(C)C)CC5)c4)c3O)cc2Cl)c1=O [Example 938, 1-(3′-(5-(4-(tert-butyl)piperazin-1-yl)-6-methoxypyridin-3-yl)-3-chloro-5′-fluoro-2′-hydroxy-[1,1′-biphenyl]-4-yl)-3-(methyl-d3)-1,3-dihydro-2H-imidazol-2-one]
0.3 to 30 | 1 to 10 | – | COc1ncc(-c2cc(F)cc(-c3ccc(-n4ccn(C)c4=O)c(F)c3)c2O)cc1N1CCN(C(C)(C)C)CC1 [Example 939, 1-(3′-(5-(4-(tert-butyl)piperazin-1-yl)-6-methoxypyridin-3-yl)-3,5′-difluoro-2′-hydroxy-[1,1′-biphenyl]-4-yl)-3-methyl-1H-imidazol-2(3H)-one]
300 to 3000 | > 100 | – | Cc1cc(-c2cc(F)cc(-c3cccc(N4CCN(C(C)(C)C)CC4)c3)c2O)ncc1-n1ccn(C)c1=O [Example 940, 1-(6-(3′-(4-(tert-butyl)piperazin-1-yl)-5-fluoro-2-hydroxy-[1,1′-biphenyl]-3-yl)-4-methylpyridin-3-yl)-3-methyl-1H-imidazol-2(3H)-one]
0.3 to 30 | 1 to 10 | – | COc1ncc(-c2cc(F)cc(-c3ccc(-n4c(C)cn(C)c4=O)c(Cl)c3)c2O)cc1N1CCN(C(C)(C)C)CC1 [Example 941, 3-(3′-(5-(4-(tert-butyl)piperazin-1-yl)-6-methoxypyridin-3-yl)-3-chloro-5′-fluoro-2′-hydroxy-[1,1′-biphenyl]-4-yl)-1,4-dimethyl-1H-imidazol-2(3H)-one]
300 to 3000 | > 100 | – | Cn1ccn(-c2ccc(-c3cc(F)cc(-c4cc(N5CCN(C(C)(C)C)CC5)ncn4)c3O)cc2Cl)c1=O [Example 942, 1-(3′-(6-(4-(tert-butyl)piperazin-1-yl)pyrimidin-4-yl)-3-chloro-5′-fluoro-2′-hydroxy-[1,1′-biphenyl]-4-yl)-3-methyl-1H-imidazol-2(3H)-one]
0.3 to 30 | 1 to 10 | – | Cn1ccn(-c2ccc(-c3cc(F)cc(-c4cccc(N5CC6CNCC6C5)c4)c3O)cc2Cl)c1=O (stereo not drawn) [Example 943, 1-(3-chloro-5′-fluoro-3″-(hexahydropyrrolo[3,4-c]pyrrol-2(1H)-yl)-2′-hydroxy-[1,1′:3′,1″-terphenyl]-4-yl)-3-methyl-1,3-dihydro-2H-imidazol-2-one]
300 to 3000 | > 100 | – | Cn1ccn(-c2ccc(-c3cc(F)cc(-c4cccc(N5CCN(C(C)(C)C)CC5)c4)c3O)nc2)c1=O [Example 944, 1-(6-(3′-(4-(tert-butyl)piperazin-1-yl)-5-fluoro-2-hydroxy-[1,1′-biphenyl]-3-yl)pyridin-3-yl)-3-methyl-1H-imidazol-2(3H)-one]
0.3 to 30 | 1 to 10 | – | Cn1ccn(-c2ccc(-c3cc(F)cc(-c4cccc(N5CCN(C(C)(C)C)CC5)c4)c3O)cc2F)c1=O [Example 945, 1-(3″-(4-(tert-butyl)piperazin-1-yl)-3,5′-difluoro-2′-hydroxy-[1,1′:3′,1″-terphenyl]-4-yl)-3-methyl-1H-imidazol-2(3H)-one]
30 to 300 | 1 to 10 | – | CC(C)N1CC2CN(c3cccc(-c4cc(F)cc(-c5ccc(-n6ccn(C)c6=O)c(Cl)c5)c4O)c3)CC2C1 (stereo not drawn) [Example 946, 1-(3-chloro-5′-fluoro-2′-hydroxy-3″-(5-isopropylhexahydropyrrolo[3,4-c]pyrrol-2(1H)-yl)-[1,1′:3′,1″-terphenyl]-4-yl)-3-methyl-1,3-dihydro-2H-imidazol-2-one]
0.3 to 30 | 1 to 10 | – | COc1ncc(-c2cc(F)cc(-c3ccc(-n4ccn(C)c4=O)c(C)c3)c2O)cc1N1CCN(C(C)(C)C)CC1 [Example 948, 1-(3′-(5-(4-(tert-butyl)piperazin-1-yl)-6-methoxypyridin-3-yl)-5′-fluoro-2′-hydroxy-3-methyl-[1,1′-biphenyl]-4-yl)-3-methyl-1,3-dihydro-2H-imidazol-2-one]
0.3 to 30 | 1 to 10 | – | Cc1cc(-c2cc(F)cc(-c3cccc(N4CCN(C(C)(C)C)CC4)c3)c2O)ccc1-n1ccn(C)c1=O [Example 949, 1-(3″-(4-(tert-butyl)piperazin-1-yl)-5′-fluoro-2′-hydroxy-3-methyl-[1,1′:3′,1″-terphenyl]-4-yl)-3-methyl-1,3-dihydro-2H-imidazol-2-one]
300 to 3000 | > 100 | – | Cn1ccn(-c2ccc(-c3cc(F)cc(-c4cccc(N5CCN(C(C)(C)C)CC5)n4)c3O)cc2Cl)c1=O [Example 950, 1-(3′-(6-(4-(tert-butyl)piperazin-1-yl)pyridin-2-yl)-3-chloro-5′-fluoro-2′-hydroxy-[1,1′-biphenyl]-4-yl)-3-methyl-1H-imidazol-2(3H)-one]
0.3 to 30 | 1 to 10 | – | Cn1ccn(-c2ccc(-c3cc(F)cc(-c4cccc(C5=CCN(C(C)(C)C)CC5)c4)c3O)cc2Cl)c1=O [Example 951, 1-(3″-(1-(tert-butyl)-1,2,3,6-tetrahydropyridin-4-yl)-3-chloro-5′-fluoro-2′-hydroxy-[1,1′:3′,1″-terphenyl]-4-yl)-3-methyl-1H-imidazol-2(3H)-one]
